Measured values published in the supplement of paper PMC13380429.

What was measured:
Settings in all cases: 72 h
[1] = tested on: Calu-3; assay: relative viability EC50 (midpoint between 100% and the lowest measured viability); higher = less toxic
[2] = tested on: U2OS; assay: as above
[3] = tested on: Vero E6; assay: as above
[4] = tested on: Caco-2; assay: as above
[5] = tested on: HepG2; assay: as above
[6] = tested on: Calu-3; assay: cell viability relative to DMSO; higher = less toxic
[7] = tested on: U2OS; assay: as above
[8] = tested on: Vero E6; assay: as above
[9] = tested on: Caco-2; assay: as above
[10] = tested on: HepG2; assay: as above
[11] = tested on: Calu-3; assay: drug sensitivity score (DSS) for viability; higher = more toxic; extreme values may be limits of the assay
[12] = tested on: U2OS; assay: as above
[13] = tested on: Vero E6; assay: as above
[14] = tested on: Caco-2; assay: as above
[15] = tested on: HepG2; assay: as above

| Structure (SMILES) | relative viability EC50 [1] | relative viability EC50 [2] | relative viability EC50 [3] | relative viability EC50 [4] | relative viability EC50 [5] | cell viability ([6]; 1 nM) | cell viability ([6]; 10 nM) | cell viability ([6]; 100 nM) | cell viability ([6]; 1000 nM) | cell viability ([6]; 10000 nM) | cell viability ([7]; 1 nM) | cell viability ([7]; 10 nM) | cell viability ([7]; 100 nM) | cell viability ([7]; 1000 nM) | cell viability ([7]; 10000 nM) | cell viability ([8]; 1 nM) | cell viability ([8]; 10 nM) | cell viability ([8]; 100 nM) | cell viability ([8]; 1000 nM) | cell viability ([8]; 10000 nM) | cell viability ([9]; 1 nM) | cell viability ([9]; 10 nM) | cell viability ([9]; 100 nM) | cell viability ([9]; 1000 nM) | cell viability ([9]; 10000 nM) | cell viability ([10]; 1 nM) | cell viability ([10]; 10 nM) | cell viability ([10]; 100 nM) | cell viability ([10]; 1000 nM) | cell viability ([10]; 10000 nM) | drug sensitivity score [11] | drug sensitivity score [12] | drug sensitivity score [13] | drug sensitivity score [14] | drug sensitivity score [15] |
| --- | --- | --- | --- | --- | --- | --- | --- | --- | --- | --- | --- | --- | --- | --- | --- | --- | --- | --- | --- | --- | --- | --- | --- | --- | --- | --- | --- | --- | --- | --- | --- | --- | --- | --- | --- |
| CCc1cccc(CC)c1NC(=O)CN(CC(=O)O)CC(=O)O [etifenin] | > 10 µM | > 10 µM | > 10 µM | > 10 µM | > 10 µM | 94.6% | 104% | 105% | 90.5% | 90.6% | 87.1% | 97.2% | 90.1% | 103% | 106% | 106% | 93.7% | 106% | 97.4% | 95% | 83.1% | 104% | 95.7% | 124% | 93.3% | 104% | 84.1% | 106% | 95.9% | 113% | 0 | 0 | 0 | 0 | 0 |
| Cn1c(=O)c2c(ncn2CCO)n(C)c1=O [etofylline] | > 10 µM | > 10 µM | > 10 µM | > 10 µM | > 10 µM | 97.8% | 99.6% | 97% | 98.2% | 102% | 102% | 97.4% | 97% | 98.8% | 98.4% | 104% | 98% | 103% | 103% | 103% | 103% | 98% | 90.5% | 102% | 97.6% | 101% | 110% | 88.8% | 96.6% | 102% | 0 | 0 | 0 | 0 | 0 |
| Cc1cnc(Nc2ccc(OCCN3CCCC3)cc2)nc1Nc1cccc(S(=O)(=O)NC(C)(C)C)c1 [fedratinib] | 3.04 µM | 2.05 µM | 2.71 µM | 1.61 µM | 1.32 µM | 107% | 102% | 100% | 98.5% | 18.3% | 104% | 97.4% | 99.2% | 86.2% | 0.8% | 96% | 104% | 104% | 94.2% | 0.3% | 101% | 97.1% | 99.3% | 79.6% | 11.9% | 120% | 100% | 101% | 74.2% | 22.2% | 4.7 | 7.8 | 6.4 | 8.1 | 8 |
| CC1(C)O[C@@H]2C[C@H]3[C@@H]4C[C@H](F)C5=CC(=O)C=C[C@]5(C)[C@H]4[C@@H](O)C[C@]3(C)[C@]2(C(=O)CO)O1 [flunisolide] | > 10 µM | > 10 µM | > 10 µM | > 10 µM | > 10 µM | 98.5% | 96.1% | 101% | 94.5% | 88.5% | 102% | 93.9% | 91.4% | 93.8% | 94.7% | 96.6% | 97.6% | 95.3% | 94.2% | 102% | 105% | 103% | 91.5% | 87.7% | 98.5% | 105% | 104% | 97.3% | 97.3% | 99.2% | 0.2 | 0 | 0 | 1 | 0 |
| c1ccc(OCc2ccc(CCCN3CCOCC3)cc2)cc1 [fomocaine] | > 10 µM | > 10 µM | > 10 µM | > 10 µM | > 10 µM | 110% | 101% | 108% | 96.3% | 113% | 93.7% | 94.6% | 98.5% | 100% | 101% | 94.9% | 95.7% | 93.1% | 100% | 100% | 87.8% | 92.8% | 100% | 93.4% | 97.1% | 96.7% | 106% | 97.1% | 101% | 90.4% | 0 | 0 | 0 | 0 | 0 |
| O=C(O)P(=O)(O)O [foscarnet] | > 10 µM | > 10 µM | > 10 µM | > 10 µM | > 10 µM | 110% | 105% | 106% | 91.9% | 93.4% | 104% | 100% | 99.2% | 99.1% | 102% | 106% | 104% | 98.3% | 99.5% | 101% | 97.4% | 103% | 97.5% | 102% | 102% | 102% | 105% | 99.9% | 104% | 96.7% | 0 | 0 | 0 | 0 | 0 |
| CCC(=O)O[C@@H](O[P@@](=O)(CCCCc1ccccc1)CC(=O)N1C[C@H](C2CCCCC2)C[C@H]1C(=O)O)C(C)C [fosinopril] | > 10 µM | > 10 µM | > 10 µM | > 10 µM | > 10 µM | 98.3% | 89.7% | 103% | 85.7% | 100% | 103% | 97.2% | 105% | 97.7% | 104% | 99.8% | 97.8% | 92.7% | 95.4% | 99.6% | 100% | 95.3% | 99.3% | 92.7% | 103% | 103% | 92.7% | 93.7% | 103% | 97.9% | 0 | 0 | 0 | 0 | 0 |
| COc1ccc2c3c1O[C@H]1C[C@@H](O)C=C[C@@]31CCN(C)C2 [galantamine] | > 10 µM | > 10 µM | > 10 µM | > 10 µM | > 10 µM | 96.9% | 91.2% | 103% | 104% | 99.9% | 101% | 95.4% | 96.5% | 104% | 104% | 102% | 99.1% | 103% | 90.8% | 93.6% | 90.2% | 104% | 106% | 112% | 108% | 84.5% | 105% | 85.8% | 102% | 100% | 0 | 0 | 0 | 0 | 0 |
| CN1C2CCCC1CC(NC(=O)c1nn(C)c3ccccc13)C2 (stereo not given) [granisetron] | > 10 µM | > 10 µM | > 10 µM | > 10 µM | > 10 µM | 108% | 106% | 110% | 92.4% | 105% | 105% | 95.8% | 99.9% | 97.8% | 98.1% | 111% | 102% | 99.9% | 102% | 96.2% | 96.7% | 99.1% | 102% | 105% | 107% | 109% | 98.1% | 82.7% | 95.1% | 92.7% | 0 | 0 | 0 | 0 | 0 |
| C=C[C@@H]1C[C@]1(NC(=O)[C@@H]1C[C@@H]2CN1C(=O)[C@H](C(C)(C)C)NC(=O)O[C@@H]1C[C@H]1CCCCCc1nc3ccc(OC)cc3nc1O2)C(=O)NS(=O)(=O)C1CC1 [grazoprevir] | > 10 µM | > 10 µM | > 10 µM | > 10 µM | > 10 µM | 103% | 107% | 105% | 94.7% | 103% | 93% | 100% | 96% | 91.6% | 90.4% | 96.3% | 98.3% | 97.1% | 95.3% | 103% | 101% | 98.5% | 105% | 93.9% | 80.8% | 106% | 92.5% | 99.6% | 103% | 106% | 0 | 0 | 0 | 1.2 | 0 |
| CCC(=O)O[C@]1(C(=O)CCl)[C@@H](C)C[C@H]2[C@@H]3C[C@H](F)C4=CC(=O)C=C[C@]4(C)[C@@]3(F)[C@@H](O)C[C@@]21C [halobetasol-propionate] | > 10 µM | > 10 µM | > 10 µM | > 10 µM | > 10 µM | 81.1% | 82.1% | 77.5% | 93.1% | 80% | 96.7% | 102% | 95.8% | 101% | 93.6% | 99.9% | 101% | 104% | 102% | 106% | 105% | 105% | 104% | 108% | 99.4% | 106% | 93.9% | 102% | 98.1% | 111% | 0 | 0 | 0 | 0 | 0 |
| CCN(CC)CCNc1ccc(CO)c2sc3ccccc3c(=O)c12 [hycanthone] | > 10 µM | > 10 µM | 1.87 µM | 3.5 µM | 1.55 µM | 101% | 110% | 101% | 102% | 84.8% | 100% | 101% | 96.2% | 104% | 85.2% | 104% | 101% | 103% | 88.5% | 32.8% | 90% | 106% | 111% | 104% | 44.2% | 101% | 96.5% | 84.2% | 70% | 0.7% | 0.2 | 0.1 | 5.6 | 2.7 | 9.1 |
| CCCC(=O)O[C@]1(C(=O)CO)CC[C@H]2[C@@H]3CCC4=CC(=O)CC[C@]4(C)[C@H]3[C@@H](O)C[C@@]21C [hydrocortisone-butyrate] | > 10 µM | > 10 µM | > 10 µM | > 10 µM | > 10 µM | 109% | 101% | 102% | 95.8% | 89.1% | 97% | 95.8% | 97.1% | 95.3% | 95.6% | 95.5% | 99% | 91.5% | 102% | 105% | 103% | 95.2% | 98.4% | 104% | 102% | 95.1% | 102% | 93.8% | 102% | 101% | 0.1 | 0 | 0 | 0 | 0 |
